Where no end group is shown, it is not given here. The star is where a group is joined. α‑carboxy 2‑nitrobenzyl = O=C(O)C(c1ccccc1[N+](=O)[O-])*
Experiments:
[1] = test system: Smooth muscle myosin light chain kinase (MLCK); experiment: inhibition of smooth muscle myosin light chain kinase (MLCK) activity, 32P incorporation into light chain; assay type: biochemical; settings: before photolysis; 100 nM calmodulin
Description: (§1) The standard photolysis protocol involves exposure of caged peptide (0.1 to 1 ml; 0.1 mM to 1 mM in 50 mM Tris pH 7.5) in a quartz cuvette (1 cm path length) to the beam of a continuous 75 watt Xenon arc lamp that is filtered through a 300-350 nm band pass filter (UG-11 filter). This standard in vitro photolysis protocol was carried out for 30 minutes at room temperature.
Smooth muscle myosin light chain kinase (MLCK) (0.5 μg/ml) was incubated with various concentrations of synthetic caged peptide (e.g., 1-CAG-RS-20 and 9-NPG-RS-20) in the presence of 100 nM calmodulin, 0.1 mM CaCl2, 100 mM KCL, 0.2 mg/ml myosin regulatory light chain, 1 mM MgCl2, and 30 mM Tris-HCL (pH 7.5) at 25° C. for 5 minutes. 1-CAG-RS-20 and 9-NPG-RS-20 were photolyzed using the standard photolysis protocol (see above) and the uncaged peptide was purified away from by-products and caged peptides prior to the enzymatic assay using reverse phase HPLC. The phosphorylation reaction was started by adding 50 μM ^32 P-ATP. The incorporation of ^32 P into the light chain was measured by scintillation counter and the inhibitory effect of the peptide on myosin light chain kinase was determined.

[2] = test system: single smooth muscle cells; experiment: calcium-dependent enhancement of calcium (inward) current after repetitive depolarization in single smooth muscle cells; assay type: cell-based; settings: cell injected with peptide
Description: The in vivo effects of 1-CAG-RS-20 on calcium-dependent enhancement of calcium current in smooth muscle were evaluated according to the methods described by McCarron et al. (Nature 357: 74-77). Photolysis of 1-CAG-RS-20 was accomplished by selectively exposing cells to a beam of UV irradiation using a light source fitted with a controllable shutter. In addition, experiments were carried out by recording phase contrast images in the far red portion of the spectrum to monitor the effects of 1-CAG-RS-20 on the contractile responses of the cells to Ca^2+ influx resulting from depolarization. Data was analyzed according to the methods described in Itoh et al. (Nature 338: 164-167, 1989).
Shown in these panels (FIG. 3) are the inward currents resulting from depolarization both before and after the train of depolarizing pulses. The trace labelled #1 was obtained before the train and that after the train is labelled #2 (FIG. 3C).

[3] = target: T1, calmodulin (Homo sapiens, UniProt P0DP23); experiment: binding to calmodulin agarose column before and after photolysis
T1 construct: purchased Sigma Chemical Co
Description: The 1-CAG-RS-20 was evaluated for its ability to bind a calmodulin agarose column before and after photolysis. This experiment was carried out as follows. 5 mls of calmodulin agarose (Sigma Chemical Co.) was poured into a 1 cm×10 cm glass column and equilibrated with 50 mM Tris pH 7.5, 1 mM CaEGTA, pCa 4.5 (where pCa=-log free […]. 100 nmoles 1CAGRS-20 in 1 ml of the same solution was loaded onto the column and eluted with the same solution while 14×1.5 ml fractions were collected. The elutant was then changed to 50 mM Tris pH 7.5, 1 mM EGTA, pCa 9 and 14×1.5 ml additional fractions were collected. Each fraction was analyzed for peptide by UV absorbance at 272 nm. A second 100 nmole aliquot of 1-CAG-RS-20 was irradiated by the standard photolysis protocol (see below) and loaded onto the calmodulin agarose column after extensive washing and reequilibration in the original pCa 4.5 solution.
as §1

[4] = test system: toad stomach smooth muscle cells; experiment: rate of shortening of single smooth muscle cells (calcium-mediated contraction); assay type: cell-based; settings: 200 μM; after photolysis versus without photolysis (FIG. 5)
Description: The in vivo effects of 1-CAG-RS-20 (200 μM) on the rate of shortening of single smooth muscle cells both before and after UV exposure was performed essentially as described in Itoh et al. (Nature 338: 164-67, 1989). Images of the cells were recorded using phase contrast optics and measurements of cell length were carried out as described by Itoh et al., supra. An interactive computer analysis program was used to measure cell length at successive intervals after the onset of cell membrane depolarization and subsequent increase in cytoplasmic Ca^2+ concentration that normally triggers contraction.

1-CAG-RS-20: RS-20 caged analog containing caged tyrosine (α-carboxy 2-nitrobenzyl) at position 5 (ARRKY(α‑carboxy 2‑nitrobenzyl)QKTGHAVRAIGRLSS)
inhibition of MLCK activity [1]: failed to significantly inhibit MLCK activity
enhancement of inward current following a train of depolarizing stimuli ([2]; following photolysis (FIG. 3D)): blocked
enhancement of inward current following a train of depolarizing stimuli ([2]; prior to exposure to ultraviolet light (FIG. 3C)): the inward current was enhanced
binding to calmodulin agarose column ([3]; before photolysis, in the presence of Ca2+ (pCa 4.5), 100 nmoles loaded): does not bind appreciably
binding to calmodulin agarose column ([3]; following photolysis, in the presence of Ca2+, binding reversed by EGTA): binds strongly
rate of cell shortening [4]: shortened more slowly

— patent US5998580A, “Photosensitive caged macromolecules” (priority 1995, dated 1999)
